Test results from ChEMBL document CHEMBL1130919, “Probing the importance of spacial and conformational domains in captopril analogs for angiotensin converting enzyme activity” (Bioorg Med Chem Lett, 1998).
pIC50: −log10 of the molar value.

Key:
[1] = biological target: T1, Angiotensin-converting enzyme (Oryctolagus cuniculus, UniProt P12822); test: Compound was tested for its inhibitory activity against Angiotensin I converting enzyme
T1 sequence (P12822 whole entry): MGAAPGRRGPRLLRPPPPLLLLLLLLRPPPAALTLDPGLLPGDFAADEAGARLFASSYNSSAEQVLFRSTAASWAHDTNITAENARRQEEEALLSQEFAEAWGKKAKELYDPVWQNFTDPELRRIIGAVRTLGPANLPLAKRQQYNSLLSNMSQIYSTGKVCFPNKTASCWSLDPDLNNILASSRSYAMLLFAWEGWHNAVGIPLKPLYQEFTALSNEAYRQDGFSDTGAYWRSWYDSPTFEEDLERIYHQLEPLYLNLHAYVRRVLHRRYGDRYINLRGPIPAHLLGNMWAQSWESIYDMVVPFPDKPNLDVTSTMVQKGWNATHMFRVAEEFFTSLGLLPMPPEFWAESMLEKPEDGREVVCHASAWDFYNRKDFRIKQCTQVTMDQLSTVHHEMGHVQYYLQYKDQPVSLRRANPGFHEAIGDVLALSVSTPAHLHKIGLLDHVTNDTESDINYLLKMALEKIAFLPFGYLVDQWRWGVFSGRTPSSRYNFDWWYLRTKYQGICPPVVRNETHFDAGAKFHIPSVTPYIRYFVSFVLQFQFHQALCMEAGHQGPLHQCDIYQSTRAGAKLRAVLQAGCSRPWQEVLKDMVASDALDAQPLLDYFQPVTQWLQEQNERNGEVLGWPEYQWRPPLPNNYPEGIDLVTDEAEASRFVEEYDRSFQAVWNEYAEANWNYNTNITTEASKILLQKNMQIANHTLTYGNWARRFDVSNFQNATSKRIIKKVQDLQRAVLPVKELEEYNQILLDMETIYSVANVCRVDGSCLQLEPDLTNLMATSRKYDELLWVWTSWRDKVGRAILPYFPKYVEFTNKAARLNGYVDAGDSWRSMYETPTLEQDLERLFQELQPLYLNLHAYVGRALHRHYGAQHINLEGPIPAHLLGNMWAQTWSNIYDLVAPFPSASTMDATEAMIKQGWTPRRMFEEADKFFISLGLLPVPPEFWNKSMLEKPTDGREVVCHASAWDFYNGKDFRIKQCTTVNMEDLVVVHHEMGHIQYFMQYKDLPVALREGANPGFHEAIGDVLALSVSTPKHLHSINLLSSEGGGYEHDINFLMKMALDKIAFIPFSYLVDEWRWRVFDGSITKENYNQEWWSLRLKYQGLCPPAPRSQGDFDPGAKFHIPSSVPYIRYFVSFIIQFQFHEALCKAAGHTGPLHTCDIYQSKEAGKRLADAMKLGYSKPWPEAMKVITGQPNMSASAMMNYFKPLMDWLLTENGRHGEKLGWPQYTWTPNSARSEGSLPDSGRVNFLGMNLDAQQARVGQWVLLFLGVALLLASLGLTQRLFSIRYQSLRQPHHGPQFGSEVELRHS

[2] = biological target: T2, Endothelin-converting enzyme 1 (Homo sapiens, UniProt P42892); test: Compound was tested for its inhibitory activity against Endothelin-converting enzyme at the concentration of 1 uM; Inactive
T2 sequence (P42892 whole entry): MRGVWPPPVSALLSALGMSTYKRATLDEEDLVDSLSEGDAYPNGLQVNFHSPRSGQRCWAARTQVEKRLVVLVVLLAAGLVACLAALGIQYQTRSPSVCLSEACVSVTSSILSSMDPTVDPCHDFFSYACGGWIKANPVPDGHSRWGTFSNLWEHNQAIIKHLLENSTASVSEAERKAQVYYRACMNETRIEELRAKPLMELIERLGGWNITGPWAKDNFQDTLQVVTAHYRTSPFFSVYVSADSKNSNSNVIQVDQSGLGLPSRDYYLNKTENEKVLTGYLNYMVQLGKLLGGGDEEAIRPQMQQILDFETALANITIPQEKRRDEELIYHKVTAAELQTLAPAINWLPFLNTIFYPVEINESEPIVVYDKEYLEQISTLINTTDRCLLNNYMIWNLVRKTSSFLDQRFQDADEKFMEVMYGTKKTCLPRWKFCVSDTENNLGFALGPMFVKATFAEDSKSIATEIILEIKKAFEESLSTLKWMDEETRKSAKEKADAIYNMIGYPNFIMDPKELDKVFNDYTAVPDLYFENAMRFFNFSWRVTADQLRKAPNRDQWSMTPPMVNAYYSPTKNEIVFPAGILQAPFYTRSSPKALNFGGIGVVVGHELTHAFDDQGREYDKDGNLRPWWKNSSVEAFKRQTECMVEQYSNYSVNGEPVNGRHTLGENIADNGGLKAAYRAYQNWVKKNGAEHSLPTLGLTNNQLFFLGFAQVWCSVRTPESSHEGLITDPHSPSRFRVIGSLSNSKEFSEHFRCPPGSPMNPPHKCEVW

[3] = biological target: T3, Neprilysin (Rattus norvegicus, UniProt P07861); test: Compound was tested for its inhibitory activity against neutral endopeptidase 24.11 enzyme at the concentration of 10 uM; Inactive
T3 sequence (P07861 whole entry): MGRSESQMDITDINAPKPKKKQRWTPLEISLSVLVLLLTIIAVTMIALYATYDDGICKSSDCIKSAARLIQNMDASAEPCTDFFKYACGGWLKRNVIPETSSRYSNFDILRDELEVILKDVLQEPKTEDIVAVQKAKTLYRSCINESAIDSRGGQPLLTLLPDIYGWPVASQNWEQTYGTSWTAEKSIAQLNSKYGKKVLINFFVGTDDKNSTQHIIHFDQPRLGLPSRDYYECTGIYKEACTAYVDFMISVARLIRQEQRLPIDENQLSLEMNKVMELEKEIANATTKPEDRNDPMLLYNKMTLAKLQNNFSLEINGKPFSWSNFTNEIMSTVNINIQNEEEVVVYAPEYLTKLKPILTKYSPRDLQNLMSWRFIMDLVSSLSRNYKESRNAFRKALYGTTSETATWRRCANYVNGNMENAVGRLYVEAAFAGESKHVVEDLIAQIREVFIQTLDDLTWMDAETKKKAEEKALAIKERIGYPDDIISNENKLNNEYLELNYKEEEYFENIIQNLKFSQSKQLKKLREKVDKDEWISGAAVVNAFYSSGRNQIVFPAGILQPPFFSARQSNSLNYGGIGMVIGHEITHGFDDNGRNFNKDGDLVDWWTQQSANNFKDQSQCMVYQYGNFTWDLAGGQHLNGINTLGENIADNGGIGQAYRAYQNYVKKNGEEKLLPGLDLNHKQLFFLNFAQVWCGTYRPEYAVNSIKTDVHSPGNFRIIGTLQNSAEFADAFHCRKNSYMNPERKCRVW

pIC50 [1] | IC50 [2] | IC50 [3] | Compound
8.12 | Not Active | Not Active | C[C@H](CS)C(=O)N1[C@@H]2C[C@@H]2C[C@H]1C(=O)O
8.28 | Not Active | Not Active | C[C@H](CS)C(=O)N1[C@@H]2C[C@@H]2CC[C@H]1C(=O)O
8.18 | Not Active | Not Active | C[C@H](CS)C(=O)N1[C@H](C(=O)O)C[C@@H]2C[C@@H]21
